Source: patent US20100093060A1, “GROWTH OF MICROORGANISMS IN CELLULOSIC MEDIA” (priority 2008, published 2010)
Residues, ends and D or L forms follow the SMILES beside them.

Key:
[1] = test system: Gram-negative and Gram-positive bacteria; settings: minimal antibacterial effects; typical range; cited from earlier work
[2] = Determination of Critical Micelle Concentration (surface tension, Wilhelmy plate); assay type: physicochemical; settings: triple distilled water, pH 10, 25±1° C.
Method: Determination of Critical Micelle Concentration. […] Surface tension was measured at 25±1° C. using the Wilhelmy plate technique with a sandblasted platinum plate as the sensor coupled to a Cahn microbalance. The entire assembly was kept in a draft-free plastic cage at a temperature of 25±1° C.

SMILES: CC(C)CCCCCCCCC[C@@H]1CC(=O)N[C@@H](CCC(=O)O)C(=O)N[C@@H](CC(C)C)C(=O)N[C@H](CC(C)C)C(=O)N[C@@H](C(C)C)C(=O)N[C@@H](CC(=O)O)C(=O)N[C@H](CC(C)C)C(=O)N[C@@H](CC(C)C)C(=O)O1 [surfactin] (HELM PEPTIDE1{E.L.[dL].V.D.[dL].L}|CHEM1{[CC(C)CCCCCCCCC[C@H](CC(=O)[*:1])O[*:2]]}$PEPTIDE1,CHEM1,1:R1-1:R1|PEPTIDE1,CHEM1,7:R2-1:R2$$$V2.0)
- minimum inhibitory concentration (MIC) [1]: 12 to 50 µg/mL

SMILES: CCCCCCCCCCCC(O)CC(=O)N[C@@H](CCC(=O)O)C(=O)O (stereo partly drawn) [FA-Glu, β-hydroxy myristoyl glutamate]
- Critical Micelle Concentration (CMC) [2]: 1.3 mM

SMILES: CCCCCCCCCCCCCC(=O)N[C@@H](CCC(=O)O)C(=O)O [myristoyl glutamate]
- Critical Micelle Concentration (CMC) [2]: 14.1 mM
